Test results as given in patent publication US20250197372A1 (priority 2020, published 2025).

Legend:
[1] = molecular target: T1, recombinant alpha-glucosidase I (human full-length glucosidase I, Glu 1) (Homo sapiens, UniProt Q13724); assay: Alpha-glucosidase I assay (Amplex Red glucose detection, synthetic trisaccharide substrate); type: biochemical; details: Glucosidase 1; read-out: Glu 1 IC50
T1 construct: 6-His (C); made in house; host or cells: HEK-293T cells transduced with BacMam virus (virus raised in Sf9)
T1 sequence (Q13724 1-837): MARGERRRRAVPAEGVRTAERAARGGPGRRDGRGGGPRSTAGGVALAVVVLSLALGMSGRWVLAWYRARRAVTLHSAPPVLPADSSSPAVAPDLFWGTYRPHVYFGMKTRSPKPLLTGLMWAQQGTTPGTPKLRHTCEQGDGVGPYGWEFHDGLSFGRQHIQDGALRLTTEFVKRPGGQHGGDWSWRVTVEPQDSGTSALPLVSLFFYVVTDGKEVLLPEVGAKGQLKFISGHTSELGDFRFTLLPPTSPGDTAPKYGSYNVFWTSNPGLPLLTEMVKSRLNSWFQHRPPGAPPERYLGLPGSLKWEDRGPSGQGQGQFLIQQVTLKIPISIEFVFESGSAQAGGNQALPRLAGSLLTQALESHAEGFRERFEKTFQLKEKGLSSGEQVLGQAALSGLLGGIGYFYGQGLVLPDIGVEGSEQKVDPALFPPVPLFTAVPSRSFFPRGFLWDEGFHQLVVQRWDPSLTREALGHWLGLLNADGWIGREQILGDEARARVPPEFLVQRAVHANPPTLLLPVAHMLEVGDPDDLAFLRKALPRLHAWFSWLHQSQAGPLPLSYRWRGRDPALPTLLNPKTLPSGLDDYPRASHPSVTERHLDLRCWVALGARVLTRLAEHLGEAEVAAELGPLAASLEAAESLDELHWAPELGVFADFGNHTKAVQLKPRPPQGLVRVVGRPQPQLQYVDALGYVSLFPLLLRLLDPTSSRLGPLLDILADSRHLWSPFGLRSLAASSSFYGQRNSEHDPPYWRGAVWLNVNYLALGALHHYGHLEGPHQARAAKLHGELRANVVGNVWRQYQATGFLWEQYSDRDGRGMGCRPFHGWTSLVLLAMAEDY
Method in brief: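 Compound dilution series incubated 60 min at 37° C with recombinant His-tagged human glucosidase I ([…]), after which trisaccharide substrate analog was added for 90 min at 37° C. Reaction quenched with 1.5M Tris pH 8; D-glucose detected by Amplex Red fluorescence, 560/590 nm. 4-PL curve fit of percent inhibition gave IC50.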

[2] = molecular target: rat sucrase (partially purified alpha-glucosidase from intestinal rat powder) (Rattus norvegicus, UniProt P23739); assay: Intestinal alpha-glucosidase assay, sucrose substrate (Glucose GO Kit); type: biochemical
Method in brief: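 First step: 60 min, 37 °C, compound with partially purified rat intestinal alpha-glucosidase. Next, maltose or sucrose for 30 min at 37 °C, ended at 90 °C for 5 min. Glucose quantified enzymatically; concentration–inhibition data fitted 4-PL for IC50.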

Chain of rat sucrase (partially purified alpha-glucosidase from intestinal rat powder) (P23739 whole entry): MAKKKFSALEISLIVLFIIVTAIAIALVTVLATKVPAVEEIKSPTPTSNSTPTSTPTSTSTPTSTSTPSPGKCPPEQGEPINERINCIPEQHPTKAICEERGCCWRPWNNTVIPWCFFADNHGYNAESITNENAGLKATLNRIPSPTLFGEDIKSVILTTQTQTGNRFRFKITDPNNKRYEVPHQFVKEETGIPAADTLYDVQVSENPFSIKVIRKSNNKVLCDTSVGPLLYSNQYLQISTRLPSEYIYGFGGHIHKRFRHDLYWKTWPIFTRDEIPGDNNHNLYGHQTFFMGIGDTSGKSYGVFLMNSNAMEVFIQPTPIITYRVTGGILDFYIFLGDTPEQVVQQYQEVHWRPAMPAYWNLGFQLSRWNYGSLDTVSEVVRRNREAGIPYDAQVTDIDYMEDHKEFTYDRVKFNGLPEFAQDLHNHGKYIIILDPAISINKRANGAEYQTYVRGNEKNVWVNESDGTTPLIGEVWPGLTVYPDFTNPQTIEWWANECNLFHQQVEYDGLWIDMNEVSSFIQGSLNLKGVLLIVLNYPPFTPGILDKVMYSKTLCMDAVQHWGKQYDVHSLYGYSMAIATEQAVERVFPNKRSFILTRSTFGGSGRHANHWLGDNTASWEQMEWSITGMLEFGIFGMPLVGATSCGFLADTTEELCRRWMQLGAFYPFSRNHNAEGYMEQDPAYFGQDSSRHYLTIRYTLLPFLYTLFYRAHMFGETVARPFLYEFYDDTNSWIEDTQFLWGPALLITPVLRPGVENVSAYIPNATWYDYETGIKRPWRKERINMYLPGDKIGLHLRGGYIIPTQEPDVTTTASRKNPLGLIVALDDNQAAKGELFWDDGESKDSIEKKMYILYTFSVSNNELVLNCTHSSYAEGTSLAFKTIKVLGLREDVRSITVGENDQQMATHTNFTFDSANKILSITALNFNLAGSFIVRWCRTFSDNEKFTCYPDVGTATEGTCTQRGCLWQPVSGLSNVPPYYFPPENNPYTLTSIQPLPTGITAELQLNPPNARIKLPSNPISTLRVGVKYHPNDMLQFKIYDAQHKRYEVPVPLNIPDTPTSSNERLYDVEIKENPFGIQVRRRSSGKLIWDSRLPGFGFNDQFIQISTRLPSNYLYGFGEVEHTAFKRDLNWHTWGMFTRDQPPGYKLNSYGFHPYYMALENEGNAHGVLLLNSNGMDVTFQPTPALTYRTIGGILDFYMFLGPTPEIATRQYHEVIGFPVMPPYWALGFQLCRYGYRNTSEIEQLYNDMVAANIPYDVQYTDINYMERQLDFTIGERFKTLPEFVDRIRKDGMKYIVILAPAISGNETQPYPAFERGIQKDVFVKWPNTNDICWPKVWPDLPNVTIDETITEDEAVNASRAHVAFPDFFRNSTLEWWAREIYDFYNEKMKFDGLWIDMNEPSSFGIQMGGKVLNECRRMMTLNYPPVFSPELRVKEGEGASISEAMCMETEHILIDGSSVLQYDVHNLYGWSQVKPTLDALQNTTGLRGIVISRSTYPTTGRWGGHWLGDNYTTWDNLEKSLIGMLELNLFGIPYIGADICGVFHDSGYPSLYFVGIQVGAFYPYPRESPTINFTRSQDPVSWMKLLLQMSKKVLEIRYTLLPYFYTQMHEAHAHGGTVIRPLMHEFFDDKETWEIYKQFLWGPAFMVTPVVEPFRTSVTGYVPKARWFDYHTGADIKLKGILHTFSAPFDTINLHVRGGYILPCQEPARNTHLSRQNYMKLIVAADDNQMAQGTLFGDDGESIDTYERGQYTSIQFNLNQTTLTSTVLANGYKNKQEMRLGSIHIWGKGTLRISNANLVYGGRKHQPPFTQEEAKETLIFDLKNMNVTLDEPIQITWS

Compound	IC50 [1]	IC50 [2]
O=[N+]([O-])c1cc(N2CC3CC2CO3)ccc1NCc1ccc(CN2C[C@@H](O)[C@H](O)[C@@H](O)[C@@H]2CO)cc1 (stereo in doubt) [Compound 1015, (2S,3S,4S,5R)-2-(hydroxymethyl)-1-[(4-{[(2-nitro-4-{2-oxa-5-azabicyclo[2.2.1]heptan-5-yl}phenyl)amino]methyl}phenyl)methyl]piperidine-3,4,5-triol]	9 nM	78 nM
CN(Cc1cccc(CN2C[C@H](O)[C@@H](O)[C@H](O)[C@H]2CO)c1)c1ccc(CN2CCCO2)cc1[N+](=O)[O-] [Compound 1020]	118 nM	129 nM
Cc1cc(Br)cc(NCc2cccc(CN3C[C@H](O)[C@@H](O)[C@H](O)[C@H]3CO)c2)c1 [Compound 1021, (2R,3R,4R,5S)-1-[(3-{[(3-bromo-5-methylphenyl)amino]methyl}phenyl)methyl]-2-(hydroxymethyl)piperidine-3,4,5-triol]	6 nM	1 nM
N#Cc1cc(Br)cc(NCc2cccc(CN3C[C@H](O)[C@@H](O)[C@H](O)[C@H]3CO)c2)c1 [Compound 1023, 3-bromo-5-{[(3-{[(2R,3R,4R,5S)-3,4,5-trihydroxy-2-(hydroxymethyl)piperidin-1-yl]methyl}phenyl)methyl]amino}benzonitrile]	15 nM	66 nM
Cc1cc(Br)cc(NCc2ccc(CN3C[C@H](O)[C@@H](O)[C@H](O)[C@H]3CO)cc2)c1 [Compound 1024, (2R,3R,4R,5S)-1-[(4-{[(3-bromo-5-methylphenyl)amino]methyl}phenyl)methyl]-2-(hydroxymethyl)piperidine-3,4,5-triol]	8 nM	14 nM
CS(=O)(=O)c1cc(Br)cc(NCc2ccc(CN3C[C@H](O)[C@@H](O)[C@H](O)[C@H]3CO)cc2)c1 [Compound 1025, (2R,3R,4R,5S)-1-[(4-{[(3-bromo-5-methanesulfonylphenyl)amino]methyl}phenyl)methyl]-2-(hydroxymethyl)piperidine-3,4,5-triol]	21 nM	2 nM
N#Cc1cc(Br)cc(NCc2ccc(CN3C[C@H](O)[C@@H](O)[C@H](O)[C@H]3CO)cc2)c1 [Compound 1026, 3-bromo-5-{[(4-{[(2R,3R,4R,5S)-3,4,5-trihydroxy-2-(hydroxymethyl)piperidin-1-yl]methyl}phenyl)methyl]amino}benzonitrile]	7 nM	< 1 nM
OC[C@@H]1[C@@H](O)[C@H](O)[C@@H](O)CN1Cc1cccc(CNc2ccc(Br)cc2)c1 [Compound 1027, (2R,3R,4R,5S)-1-[(3-{[(4-bromophenyl)amino]methyl}phenyl)methyl]-2-(hydroxymethyl)piperidine-3,4,5-triol]	22 nM	23 nM
OC[C@@H]1[C@@H](O)[C@H](O)[C@@H](O)CN1Cc1ccc(CNc2ccc(Br)cc2)cc1 [Compound 1028, (2R,3R,4R,5S)-1-[(4-{[(4-bromophenyl)amino]methyl}phenyl)methyl]-2-(hydroxymethyl)piperidine-3,4,5-triol]	< 1 nM	11 nM
O=[N+]([O-])c1cc(Br)ccc1NCc1cccc(CN2C[C@H](O)[C@@H](O)[C@H](O)[C@H]2CO)c1 [Compound 1029, (2R,3R,4R,5S)-1-[(3-{[(4-bromo-2-nitrophenyl)-amino]methyl}phenyl)methyl]-2-(hydroxymethyl)piperidine-3,4,5-triol]	8 nM	< 1 nM
O=[N+]([O-])c1cc(Br)ccc1NCc1ccc(CN2C[C@H](O)[C@@H](O)[C@H](O)[C@H]2CO)cc1 [Compound 1030, (2R,3R,4R,5S)-1-[(4-{[(4-bromo-2-nitrophenyl)amino]methyl}phenyl)methyl]-2-(hydroxymethyl)piperidine-3,4,5-triol]	< 1 nM	< 1 nM
Cc1cc(NCc2cccc(CN3C[C@H](O)[C@@H](O)[C@H](O)[C@H]3CO)c2)cc(N2CCOCC2)c1 [Compound 1031, (2R,3R,4R,5S)-2-(hydroxymethyl)-1-{[3-({[3-methyl-5-(morpholin-4-yl)phenyl]amino}methyl)phenyl]methyl}piperidine-3,4,5-triol]	93 nM	288 nM
Cc1cc(NCc2cccc(CN3C[C@H](O)[C@@H](O)[C@H](O)[C@H]3CO)c2)cc(C2=COCCO2)c1 [Compound 1032, (2R,3R,4R,5S)-1-{[3-({[3-(5,6-dihydro-1,4-dioxin-2-yl)-5-methylphenyl]amino}methyl)phenyl]methyl}-2-(hydroxymethyl)piperidine-3,4,5-triol]	16 nM	36 nM
Cc1cc(NCc2cccc(CN3C[C@H](O)[C@@H](O)[C@H](O)[C@H]3CO)c2)cc(-c2ccc[nH]2)c1 [Compound 1033, (2R,3R,4R,5S)-2-(hydroxymethyl)-1-{[3-({[3-methyl-5-(1H-pyrrol-2-yl)phenyl]amino}methyl)phenyl]methyl}piperidine-3,4,5-triol]	9 nM	34 nM
Cc1cc(NCc2cccc(CN3C[C@H](O)[C@@H](O)[C@H](O)[C@H]3CO)c2)cc(-c2cccnn2)c1 [Compound 1034, (2R,3R,4R,5S)-2-(hydroxymethyl)-1-{[3-({[3-methyl-5-(pyridazin-3-yl)phenyl]amino}methyl)phenyl]methyl}piperidine-3,4,5-triol]	20 nM	57 nM
CS(=O)(=O)c1cc(NCc2cccc(CN3C[C@H](O)[C@@H](O)[C@H](O)[C@H]3CO)c2)cc(N2CCOCC2)c1 [Compound 1036, (2R,3R,4R,5S)-2-(hydroxymethyl)-1-{[3-({[3-methanesulfonyl-5-(morpholin-4-yl)phenyl]amino}methyl)phenyl]methyl}piperidine-3,4,5-triol]	30 nM	219 nM
N#Cc1cc(NCc2cccc(CN3C[C@H](O)[C@@H](O)[C@H](O)[C@H]3CO)c2)cc(N2CCOCC2)c1 [Compound 1042, 3-(morpholin-4-yl)-5-{[(3-{[(2R,3R,4R,5S)-3,4,5-trihydroxy-2-(hydroxymethyl)piperidin-1-yl]methyl}phenyl)methyl]amino}benzonitrile]	30 nM	163 nM
OC[C@@H]1[C@@H](O)[C@H](O)[C@@H](O)CN1CCCCCCNc1cc(Cl)cc(-c2ncco2)c1 [Compound 1211, (2R,3R,4R,5S)-1-(6-{[3-chloro-5-(1,3-oxazol-2-yl)phenyl]amino}hexyl)-2-(hydroxymethyl)piperidine-3,4,5-triol]	112 nM	72 nM
OC[C@@H]1[C@@H](O)[C@H](O)[C@@H](O)CN1CCCCCCNc1cc(Cl)cc(-c2ncccn2)c1 [Compound 1212, (2R,3R,4R,5S)-1-(6-{[3-chloro-5-(pyrimidin-2-yl)phenyl]amino}hexyl)-2-(hydroxymethyl)piperidine-3,4,5-triol]	105 nM	89 nM
COc1cc(NCCCCCCN2C[C@H](O)[C@@H](O)[C@H](O)[C@H]2CO)cc(-c2ncco2)c1 [Compound 1216, (2R,3R,4R,5S)-2-(hydroxymethyl)-1-(6-{[3-methoxy-5-(1,3-oxazol-2-yl)phenyl]amino}hexyl)piperidine-3,4,5-triol]	67 nM	796 nM
COc1cc(NCCCCCCN2C[C@H](O)[C@@H](O)[C@H](O)[C@H]2CO)cc(-c2ncccn2)c1 [Compound 1217, (2R,3R,4R,5S)-2-(hydroxymethyl)-1-(6-{[3-methoxy-5-(pyrimidin-2-yl)phenyl]amino}hexyl)piperidine-3,4,5-triol]	128 nM	225 nM
COc1cc(NCCCCCCN2C[C@H](O)[C@@H](O)[C@H](O)[C@H]2CO)cc(-c2ncc[nH]2)c1 [Compound 1219, (2R,3R,4R,5S)-2-(hydroxymethyl)-1-(6-{[3-(1H-imidazol-2-yl)-5-methoxyphenyl]amino}hexyl)piperidine-3,4,5-triol]	93 nM	64 nM
COCCCCCN(CCCNc1ccc(N=[N+]=[N-])cc1[N+](=O)[O-])CCCN1C[C@H](O)[C@@H](O)[C@H](O)[C@H]1CO [Compound 1221, (2R,3R,4R,5S)-1-[3-({3-[(4-azido-2-nitrophenyl)amino]propyl}(5-methoxypentyl)amino)propyl]-2-(hydroxymethyl)piperidine-3,4,5-triol]	2230 nM	424 nM
